One data set concerns HepG2. Kind of data set: HepG2 growth inhibition. Format: cell-based. As to conditions: Homo sapiens, HepG2, read-out: human cells, GI50 HepG2.
The target of a further data set is Src (Homo sapiens, UniProt P12931). Kind of data set: Src tyrosine kinase inhibition. Format: biochemical.
In the next data set the test system is CRL-8155. Briefly: CRL-8155 growth inhibition. Format: cell-based. Particulars: Homo sapiens, CRL8155, read-out: human cells, GI50 CRL-8155.
The nature of a further data set: in vitro. As to conditions: mouse.
In the next data set the target is hERG (Homo sapiens, UniProt Q12809).
The next data set can be described thus: physchem. As to conditions: phosphate-buffered saline, pH 6.5, Solubility.
The conditions of data set [1]: phosphate-buffered saline, pH 6.5.

Results on 28 molecules are retold here after publication PMC5100899 (Journal of medicinal chemistry, 2016).

Each structure is given as a SMILES string. In brackets after ≈: the same amount, converted by molar mass. Read-outs that look alike come from different tables or passages of the source.

Sequence of Src (P12931 whole entry, species assumed): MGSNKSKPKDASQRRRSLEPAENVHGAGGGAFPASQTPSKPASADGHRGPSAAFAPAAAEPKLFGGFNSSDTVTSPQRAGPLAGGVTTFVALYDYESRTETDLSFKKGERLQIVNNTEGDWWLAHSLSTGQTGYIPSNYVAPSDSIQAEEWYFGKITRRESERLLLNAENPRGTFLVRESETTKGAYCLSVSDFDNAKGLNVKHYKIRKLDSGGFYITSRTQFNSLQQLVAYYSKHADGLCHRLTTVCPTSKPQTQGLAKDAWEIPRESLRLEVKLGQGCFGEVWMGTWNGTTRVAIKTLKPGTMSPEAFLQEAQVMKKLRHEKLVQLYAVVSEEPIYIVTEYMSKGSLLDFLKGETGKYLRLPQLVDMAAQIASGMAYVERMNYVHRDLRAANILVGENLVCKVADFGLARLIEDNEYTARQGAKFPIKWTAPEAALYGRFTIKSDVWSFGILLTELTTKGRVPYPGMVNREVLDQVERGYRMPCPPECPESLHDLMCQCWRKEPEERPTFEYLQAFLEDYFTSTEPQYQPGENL
Sequence of hERG (Q12809 whole entry): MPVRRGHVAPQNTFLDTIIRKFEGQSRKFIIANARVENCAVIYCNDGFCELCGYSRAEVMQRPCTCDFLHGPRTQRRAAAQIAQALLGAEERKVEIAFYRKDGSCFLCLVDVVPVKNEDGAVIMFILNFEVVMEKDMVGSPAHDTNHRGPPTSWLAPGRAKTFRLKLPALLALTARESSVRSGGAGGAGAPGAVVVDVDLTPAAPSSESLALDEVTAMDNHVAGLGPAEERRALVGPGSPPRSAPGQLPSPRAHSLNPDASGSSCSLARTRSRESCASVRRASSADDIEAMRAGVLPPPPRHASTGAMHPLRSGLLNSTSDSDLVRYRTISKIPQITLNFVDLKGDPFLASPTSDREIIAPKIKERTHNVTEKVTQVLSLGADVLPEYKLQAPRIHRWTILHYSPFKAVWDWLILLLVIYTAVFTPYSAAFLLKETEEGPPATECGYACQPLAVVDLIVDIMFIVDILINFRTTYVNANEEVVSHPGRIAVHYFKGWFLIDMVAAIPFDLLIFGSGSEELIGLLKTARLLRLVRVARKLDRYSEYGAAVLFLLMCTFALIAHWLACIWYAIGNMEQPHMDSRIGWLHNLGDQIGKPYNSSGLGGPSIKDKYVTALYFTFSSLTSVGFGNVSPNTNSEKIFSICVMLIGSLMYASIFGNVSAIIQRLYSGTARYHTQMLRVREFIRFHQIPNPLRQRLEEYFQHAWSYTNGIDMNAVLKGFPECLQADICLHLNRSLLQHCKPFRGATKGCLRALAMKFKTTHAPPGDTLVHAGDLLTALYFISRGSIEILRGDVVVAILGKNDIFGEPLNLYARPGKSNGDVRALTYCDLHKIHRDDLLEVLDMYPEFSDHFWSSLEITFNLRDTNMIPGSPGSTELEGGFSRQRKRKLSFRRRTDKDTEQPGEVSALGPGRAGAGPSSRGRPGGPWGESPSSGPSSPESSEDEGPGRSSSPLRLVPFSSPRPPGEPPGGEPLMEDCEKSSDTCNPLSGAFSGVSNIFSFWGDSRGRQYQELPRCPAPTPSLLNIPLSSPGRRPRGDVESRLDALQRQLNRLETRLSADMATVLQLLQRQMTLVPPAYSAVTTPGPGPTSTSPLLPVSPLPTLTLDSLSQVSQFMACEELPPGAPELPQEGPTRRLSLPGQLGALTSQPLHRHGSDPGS

The GI50 is the concentration giving 50% growth inhibition. As a reminder, the IC50 is the concentration needed to halve the response being measured. Low readings indicate greater potency, high ones weaker potency. Take `CN1CCC(Cn2nc(-c3ccc4cc(OCC(C)(C)O)ccc4c3)c3c(N)ncnc32)CC1` [Compound 16, 1-(6-(4-Amino-1-((1-methylpiperidin-4-yl)methyl)-1H-pyrazolo[3,4-d]pyrimidin-3-yl)naphthalen-2-yloxy)-2-methylpropan-2-ol]: the GI50 with HepG2 and in the data set on CRL-8155 was > 10 µM each time. Besides, on Src, the IC50 is > 10 µM.
On to `CN1CCC(Cn2nc(-c3ccc4cc(OC5CCC5)ccc4c3)c3c(N)ncnc32)CC1` [Compound 11, 3-(6-Cyclobutoxynaphthalen-2-yl)-1-((1-methylpiperidin-4-yl)methyl)-1H-pyrazolo[3,4-d]pyrimidin-4-amine], for which the GI50 with HepG2 and in the data set with CRL-8155 was > 10 µM throughout. The IC50 against Src is > 10 µM.
As to `CCOc1ccc2cc(-c3nn(CC4CCN(C(C)C)CC4)c4ncnc(N)c34)ccc2c1` [Compound 7], the GI50 with HepG2 and with CRL-8155 was > 10 µM throughout. For the same molecule, the IC50 against Src is > 10 µM.
In the case of `CN1CCC(Cn2nc(-c3ccc4nc(OC5CC5)ccc4c3)c3c(N)ncnc32)CC1` [Compound 19, 3-(2-Cyclopropoxyquinolin-6-yl)-1-((1-methylpiperidin-4-yl)methyl)-1H-pyrazolo[3,4-d]pyrimidin-4-amine], in the data set with HepG2, the GI50 is > 10 µM. Moreover, the half-inhibitory concentration (IC50) on Src was > 10 µM.
For the molecule `CCOc1ccc2cc(-c3nn(CC(C)(C)O)c4ncnc(N)c34)ccc2n1` [Compound 31, 1-(4-Amino-3-(2-ethoxyquinolin-6-yl)-1H-pyrazolo[3,4-d]pyrimidin-1-yl)-2-methylpropan-2-ol], the GI50 in the data set on HepG2 and with CRL-8155 was > 10 µM throughout. Further, the IC50 at Src was > 10 µM.
`CCOc1ccc2cc(-c3nn(CC4CN(C(C)=O)C4)c4ncnc(N)c34)ccc2c1` [Compound 9]: the GI50 in the data set on HepG2 and in the data set on CRL-8155 was > 10 µM in each case.
Turning to `Nc1ncnc2c1c(-c1ccc3cc(OC4CC4)ccc3c1)nn2CC1CCOCC1` [Compound 28, 3-(6-Cyclopropoxynaphthalen-2-yl)-1-((tetrahydro-2H-pyran-4-yl)methyl)-1H-pyrazolo[3,4-d]pyrimidin-4-amine], the GI50 with HepG2 and with CRL-8155 was > 10 µM each time.
Turning to `CCOc1ccc2cc(-c3nn(CC4CCN(C(C)=O)CC4)c4ncnc(N)c34)ccc2c1` [Compound 8], the concentration for 50% growth inhibition (GI50) with HepG2 and in the data set with CRL-8155 was > 10 µM throughout.
In the case of `CN1CCC(Cn2nc(-c3ccc4cc(OC5COC5)ccc4c3)c3c(N)ncnc32)CC1` [Compound 14, 1-((1-Methylpiperidin-4-yl)methyl)-3-(6-(oxetan-3-yloxy)naphthalen-2-yl)-1H-pyrazolo[3,4-d]pyrimidin-4-amine], the GI50 in the data set with HepG2 and in the data set with CRL-8155 was > 10 µM each time. At Src, the IC50 is > 10 µM.
On to `CCOc1ccc2cc(-c3nn(CC4CCOCC4)c4ncnc(N)c34)ccc2n1` [Compound 27], for which the GI50 with HepG2 and with CRL-8155 was > 10 µM throughout. In addition, the IC50 against Src is > 10 µM.
On to `CCOc1ccc2cc(-c3nn(CC4CN(C)C4)c4ncnc(N)c34)ccc2c1` [Compound 6], for which the GI50 in the data set with HepG2 and in the data set with CRL-8155 was > 10 µM throughout. Besides, the IC50 against Src is > 10 µM.
For `CC(C)Cn1nc(-c2ccc3cc(OC4CC4)ccc3c2)c2c(N)ncnc21` [Compound 22, 3-(6-Cyclopropoxynaphthalen-2-yl)-1-isobutyl-1H-pyrazolo[3,4-d]pyrimidin-4-amine], the GI50 in the data set on CRL-8155 is > 10 µM.
For `CCOc1ccc2cc(-c3nn(CC4CCOCC4)c4ncnc(N)c34)ccc2c1` [Compound 26], the GI50 in the data set on HepG2 and in the data set on CRL-8155 was > 10 µM throughout. The IC50 against Src is > 10 µM.
With `CC1(Cn2nc(-c3ccc4cc(OC5CC5)ccc4c3)c3c(N)ncnc32)COC1` [Compound 24, 3-(6-Cyclopropoxynaphthalen-2-yl)-1-((3-methyloxetan-3-yl)methyl)-1H-pyrazolo[3,4-d]pyrimidin-4-amine], the GI50 with HepG2 and in the data set on CRL-8155 was > 10 µM throughout. In addition, at Src, the IC50 is > 10 µM.
What is called EC50 is the concentration that produces a half-maximal response. A high value points to lower potency in that assay. `CC(C)(O)Cn1nc(-c2ccc3nc(OC4CC4)ccc3c2)c2c(N)ncnc21` [Compound 33, 1-(4-Amino-3-(2-cyclopropoxyquinolin-6-yl)-1H-pyrazolo[3,4-d]pyrimidin-1-yl)-2-methylpropan-2-ol]: the GI50 in the data set on HepG2 and in the data set with CRL-8155 was > 10 µM throughout. In the data set “in vitro”, this molecule gave an EC50 of 1.33 µM.
For the molecule `COCCOc1ccc2cc(-c3nn(CC4CCN(C)CC4)c4ncnc(N)c34)ccc2c1` [Compound 13, 3-(6-(2-Methoxyethoxy)naphthalen-2-yl)-1-((1-methylpiperidin-4-yl)methyl)-1H-pyrazolo[3,4-d]pyrimidin-4-amine], the GI50 in the data set with HepG2 and in the data set with CRL-8155 was > 10 µM throughout. In addition, the concentration for half-maximal inhibition (IC50) on Src was > 10 µM.
In the case of `Nc1ncnc2c1c(-c1ccc3cc(OC4CC4)ccc3c1)nn2CC(O)(C(F)(F)F)C(F)(F)F` [Compound 37, 2-((4-Amino-3-(6-cyclopropoxynaphthalen-2-yl)-1H-pyrazolo[3,4-d]pyrimidin-1-yl)methyl)-1,1,1,3,3,3-hexafluoropropan-2-ol], the GI50 in the data set on HepG2 and with CRL-8155 was > 10 µM each time. On Src, the IC50 was > 10 µM.
Take `CC1(Cn2nc(-c3ccc4nc(OC5CC5)ccc4c3)c3c(N)ncnc32)COC1` [Compound 25, 3-(2-Cyclopropoxyquinolin-6-yl)-1-((3-methyloxetan-3-yl)methyl)-1H-pyrazolo[3,4-d]pyrimidin-4-amine]: the GI50 in the data set with HepG2 and in the data set on CRL-8155 was > 10 µM each time. The IC50 against Src was > 10 µM.
Take `CCOc1ccc2cc(-c3nn(CC4CCN(C)CC4)c4ncnc(N)c34)ccc2n1` [Compound 17, 3-(2-Ethoxyquinolin-6-yl)-1-((1-methylpiperidin-4-yl)methyl)-1H-pyrazolo[3,4-d]pyrimidin-4-amine]: at Src, the IC50 is > 10 µM. In addition, at hERG, the “lower activity against hERG than 1” value turned out to be 25 fold.
With `CN(C)CC(C)(C)Cn1nc(-c2ccc3nc(OC4CC4)ccc3c2)c2c(N)ncnc21` [Compound 20, 3-(2-Cyclopropoxyquinolin-6-yl)-1-(3-(dimethylamino)-2,2-dimethylpropyl)-1H-pyrazolo[3,4-d]pyrimidin-4-amine], the GI50 with HepG2 and in the data set with CRL-8155 was > 10 µM throughout. Besides, the IC50 at Src was > 10 µM.
As to `CCOc1ccc2cc(-c3nn(CC4CNC4)c4ncnc(N)c34)ccc2c1` [Compound 5], the GI50 in the data set on HepG2 and with CRL-8155 was > 10 µM in each case. Moreover, the IC50 on Src is > 10 µM.
`CN1CCC(Cn2nc(-c3ccc4cc(OCC5CC5)ccc4c3)c3c(N)ncnc32)CC1` [Compound 10, 3-(6-(Cyclopropylmethoxy)naphthalen-2-yl)-1-((1-methylpiperidin-4-yl)methyl)-1H-pyrazolo[3,4-d]pyrimidin-4-amine]: the GI50 in the data set with HepG2 and with CRL-8155 was > 10 µM each time. At Src, the IC50 is > 10 µM.
What is called solubility is the dissolved amount per volume that the medium holds. Read a high solubility as much dissolved substance. As to `Nc1ncnc2c1c(-c1ccc3nc(OC4CC4)ccc3c1)nn2CC1CCOCC1` [Compound 29, 3-(2-Cyclopropoxyquinolin-6-yl)-1-((tetrahydro-2H-pyran-4-yl)methyl)-1H-pyrazolo[3,4-d]pyrimidin-4-amine], the GI50 in the data set with HepG2 and in the data set on CRL-8155 was > 10 µM in each case. Also, at Src, the IC50 was > 10 µM. In addition, the solubility in “physchem” is < 20 µM; in data set [1], 17 µM (≈ 7.08 µg/mL).
Regarding `CCOc1ccc2cc(-c3nn(CC(C)C)c4ncnc(N)c34)ccc2c1` [Compound 21, 3-(6-Ethoxynaphthalen-2-yl)-1-isobutyl-1H-pyrazolo[3,4-d]pyrimidin-4-amine], the GI50 in the data set with HepG2 and in the data set with CRL-8155 was > 10 µM throughout. Besides, on Src, the IC50 is > 10 µM.
For the molecule `CC(C)Cn1nc(-c2ccc3nc(OC4CC4)ccc3c2)c2c(N)ncnc21` [Compound 23, 3-(2-Cyclopropoxyquinolin-6-yl)-1-isobutyl-1H-pyrazolo[3,4-d]pyrimidin-4-amine], the 50% growth inhibitory concentration (GI50) in the data set on HepG2 and with CRL-8155 was > 10 µM in each case. In addition, the IC50 against Src is > 10 µM.
As for `CC(C)(CO)Cn1nc(-c2ccc3nc(OCC(F)(F)F)ccc3c2)c2c(N)ncnc21` [Compound 36, 3-(4-Amino-3-(2-(2,2,2-trifluoroethoxy)quinolin-6-yl)-1H-pyrazolo[3,4-d]pyrimidin-1-yl)-2,2-dimethylpropan-1-ol], the 50% inhibitory concentration (IC50) against Src was > 10 µM.
With `CN1CCC(Cn2nc(-c3ccc4cc(OC5CC5)ccc4c3)c3c(N)ncnc32)CC1` [Compound 12, 3-(6-Cyclopropoxynaphthalen-2-yl)-1-((1-methylpiperidin-4-yl)methyl)-1H-pyrazolo[3,4-d]pyrimidin-4-amine], the IC50 on Src was > 10 µM. Moreover, the GI50 in the data set with CRL-8155 is > 10 µM.
Take `CCOc1ccc2cc(-c3nn(CC(C)(C)O)c4ncnc(N)c34)ccc2c1` [Compound 30, 1-(4-Amino-3-(6-ethoxynaphthalen-2-yl)-1H-pyrazolo[3,4-d]pyrimidin-1-yl)-2-methylpropan-2-ol]: the GI50 in the data set with HepG2 and in the data set on CRL-8155 was > 10 µM in each case. The IC50 against Src was > 10 µM.
